One test deals with Phakopsora pachyrhizi. Nature of the test: Example B5: preventative activity against Phakopsora pachyrhizi (soybean rust), whole soybean plants sprayed, leaf disks inoculated. It is filed as in vivo. The settings on record: for inhibition at 2.25 g/ha / inhibition at 4.5 g/ha / inhibition at 18 g/ha / inhibition at 45 g/ha / inhibition at 90 g/ha / inhibition at 22.5 g/ha / inhibition at 225 g/ha / inhibition at 450 g/ha: Phakopsora pachyrhizi, foliar. The protocol:
Whole soybean plants are treated with the recited active ingredients 4 weeks after planting. 1 day after spraying leaf disks are cut from the first trifoliate leaf. Five repetitions at each rate are conducted. The leaf disks are inoculated with Phakopsora pachyrhizi (Asian soybean rust) one day after treatment.
Evaluation of the leaf disks is conducted 11 to 14 days after inoculation and the activity is derived from the relation of the treated vs untreated, infested check (100=no disease, no damage to the leaf, 0=high infestation, leaf damaged heavily). The rates of the active ingredients used are given in the tables as g active ingredient (a.i.)/ha.

For the next test, the system named is Septoria tritici. Nature of the test: Example B3: mixtures, preventative activity against Septoria tritici (leaf blotch), liquid culture. It is filed as cell-based. Conditions: component B alone. The source says:
(§1) This occurs whenever the action of an active ingredient combination is greater than the sum of the actions of the individual components. The action to be expected E for a given active ingredient combination obeys the so-called COLBY formula and can be calculated as follows (COLBY, S. R. “Calculating synergistic and antagonistic responses of herbicide combination”. Weeds, Vol. 15, pages 20-22; 1967):
(§2) If the action actually observed (O) is greater than the expected action (E), then the action of the combination is super-additive, i.e. there is a synergistic effect. In mathematical terms, synergism corresponds to a positive value for the difference of (O-E). In the case of purely complementary addition of activities (expected activity), said difference (O-E) is zero. A negative value of said difference (O-E) signals a loss of activity compared to the expected activity.
(§3) Conidia of the fungus from cryogenic storage were directly mixed into nutrient broth (PDB potato dextrose broth). A DMSO solution of the test compounds was placed into a microtiter plate (96-well format) and the nutrient broth containing the fungal spores was added to it.
(§4) Fungicidal activity was evaluated on a 100-0 scale (100=no disease growth; 0=well completely covered by mycelium).

In a further test the test system is Septoria glycines. The test can be described thus: Example B2: mixtures, preventative activity against Septoria glycines (brown spot), liquid culture. Conditions: component B alone. It is filed as cell-based.
Excerpt: as §1, §2
Conidia of the fungus harvested from a fresh culture grown on artificial media, were directly mixed into nutrient broth (PDB potato dextrose broth). A DMSO solution of the test compounds was placed into a microtiter plate (96-well format) and the nutrient broth containing the fungal spores was added to it.
as §4

Test [1] concerns Glomerella lagenarium syn. Colletotrichum lagenarium. The test can be described thus: Example B1: mixtures, preventative activity against Glomerella lagenarium syn. Colletotrichum lagenarium, liquid culture. It is filed as cell-based. Conditions: component B alone.
Excerpt: as §1, §2, §3, §4

The mark [2] stands for this setting: read-out: Observed Activity (% of untreated) against Phakopsora pachyrhizi.
[3] abbreviates: read-out: Observed Activity (%) (% of untreated) against Phakopsora pachyrhizi.
Where [4] appears, read: active ingredient alone, 22.5 g/ha, read-out: Observed Activity (%) (% of untreated).
The mark [5] stands for this setting: active ingredient alone, 45 g/ha, read-out: Observed Activity (%) (% of untreated).
Setting [6] is: active ingredient alone, 90 g/ha, read-out: Observed Activity (%) (% of untreated).
[7] abbreviates: applied alone, 22.5 g/ha, read-out: Observed Activity (% of untreated) against Phakopsora pachyrhizi.
[8] abbreviates: applied alone, 45 g/ha, read-out: Observed Activity (% of untreated) against Phakopsora pachyrhizi.
Where [9] appears, read: applied alone, 90 g/ha, read-out: Observed Activity (% of untreated) against Phakopsora pachyrhizi.
The mark [10] stands for this setting: Zymoseptoria tritici, 0.1 ppm, 100-0 scale, read-out: Activity (%) B.
Setting [11] is: Septoria glycines, 0.1 ppm, 100-0 scale, read-out: Activity (%) B.
Where [12] appears, read: Septoria glycines, 0.3 ppm, 100-0 scale.

Read-outs that look alike come from different tables or passages of the source.

Data on 18 molecules can be found in patent US20230131427A1, “FUNGICIDAL COMPOSITIONS” (SYNGENTA CROP PROTECTION AG, priority 2020, published 2023).

For `COC(=O)N(OC)c1ccccc1COc1ccn(-c2ccc(Cl)cc2)n1` [pyraclostrobin, reference compound], the inhibition at 2.25 g/ha in the test on Phakopsora pachyrhizi (active ingredient alone, 2.25 g/ha, read-out: Observed Activity (%) (% of untreated)) amounted to 0%; in the test on Phakopsora pachyrhizi (applied alone, 2.25 g/ha, read-out: Observed Activity (% of untreated) against Phakopsora pachyrhizi) it was 0%. In addition, the inhibition at 4.5 g/ha in the test on Phakopsora pachyrhizi (active ingredient alone, 4.5 g/ha, read-out: Observed Activity (%) (% of untreated)) was 0%; with Phakopsora pachyrhizi (applied alone, 4.5 g/ha, read-out: Observed Activity (% of untreated) against Phakopsora pachyrhizi), 0%. The inhibition at 18 g/ha in the test with Phakopsora pachyrhizi (active ingredient alone, 18 g/ha, read-out: Observed Activity (%) (% of untreated)) came to 13%; in the test with Phakopsora pachyrhizi (applied alone, 18 g/ha, read-out: Observed Activity (% of untreated) against Phakopsora pachyrhizi), 13%. In addition, the “Observed Activity (% of untreated) against Phakopsora pachyrhizi” value (“Observed Activity (% of untreated)” for short) in the test with Phakopsora pachyrhizi (applied alone, 9 g/ha) is recorded as 1%.
Regarding `O=C(O)CNCP(=O)(O)O` [Glyphosate], the inhibition at 45 g/ha with Phakopsora pachyrhizi (setting [2]) and in the test on Phakopsora pachyrhizi (setting [3]) was 1% in each case. Besides, the inhibition at 90 g/ha with Phakopsora pachyrhizi (setting [2]) and with Phakopsora pachyrhizi (setting [3]) was 0% each time.
With `CC1(C)N=C(c2cnc3ccccc3c2)c2ccccc2C1(F)F` [quinofumelin], the “Activity (%) B” value stood at 0% with Septoria tritici (0.1 ppm, 100-0 scale) and 0% with Septoria tritici (0.3 ppm, 100-0 scale).
With `CC1COC(Cn2cncn2)(c2ccc(Oc3ccc(Cl)cc3)cc2Cl)O1` (stereo not drawn) [Difenoconazole], the inhibition at 22.5 g/ha in the test on Phakopsora pachyrhizi (setting [4]) and in the test on Phakopsora pachyrhizi (setting [7]) was 3% in each case. In addition, the inhibition at 45 g/ha with Phakopsora pachyrhizi (setting [5]) and in the test with Phakopsora pachyrhizi (setting [8]) was 10% each time. For the same molecule, the inhibition at 90 g/ha in the test with Phakopsora pachyrhizi (setting [6]) and with Phakopsora pachyrhizi (setting [9]) was 24% throughout.
As for `CC(Cc1ccc(C(C)(C)C)cc1)CN1CCCCC1` (stereo not drawn) [fenpropidin], the inhibition at 0.1 ppm in the test with Septoria tritici (setting [10]) turned out to be 0%. Further, the inhibition at 0.3 ppm in the test on Septoria tritici (Zymoseptoria tritici, 0.3 ppm, 100-0 scale, read-out: Activity (%) B) was determined as 0%.
As to `CC(Cc1ccc(C(C)(C)C)cc1)CN1CCCCC1` (stereo not drawn) [Fenpropidin], the inhibition at 225 g/ha came out at 72% with Phakopsora pachyrhizi (applied alone, 225 g/ha, read-out: Observed Activity (% of untreated) against Phakopsora pachyrhizi) and 72% in the test on Phakopsora pachyrhizi (applied alone, 225 g/ha, read-out: Observed Activity (%) (% of untreated) against Phakopsora pachyrhizi). Moreover, the inhibition at 450 g/ha with Phakopsora pachyrhizi (applied alone, 450 g/ha, read-out: Observed Activity (% of untreated) against Phakopsora pachyrhizi) worked out at 77%; in the test with Phakopsora pachyrhizi (applied alone, 450 g/ha, read-out: Observed Activity (%) (% of untreated) against Phakopsora pachyrhizi), 77%.
Mancozeb: the “Observed Activity (% of untreated)” value with Phakopsora pachyrhizi (applied alone, 225 g/ha) amounted to 20%; in the test on Phakopsora pachyrhizi (applied alone, 450 g/ha), 34%.
`CC(C1CC1)C(O)(Cn1cncn1)c1ccc(Cl)cc1` (stereo not drawn) [cyproconazole, reference compound]: the inhibition at 22.5 g/ha with Phakopsora pachyrhizi (setting [4]) and in the test on Phakopsora pachyrhizi (setting [7]) was 15% throughout. In addition, the inhibition at 45 g/ha with Phakopsora pachyrhizi (setting [5]) and in the test with Phakopsora pachyrhizi (setting [8]) was 69% throughout. Also, the inhibition at 90 g/ha in the test with Phakopsora pachyrhizi (setting [6]) and in the test with Phakopsora pachyrhizi (setting [9]) was 84% each time. Also, the inhibition at 0.1 ppm is 20% with Septoria tritici (Zymoseptoria tritici, 72 h, 0.1 ppm, 72 hrs, 100=no disease growth, read-out: Activity (%) B); 20% in the test with Septoria tritici (setting [10]); 50% in the test on Septoria glycines (setting [11]). For the same molecule, the inhibition at 0.3 ppm with Septoria tritici (Zymoseptoria tritici, 72 h, 0.3 ppm, 72 hrs, read-out: Activity (%) B) amounted to 50%; in the test with Septoria glycines (Septoria glycines, 0.3 ppm), 70%; in the test on Septoria glycines (setting [12]) it was 70%.
With `CC(C)C1C2CCC1c1c(NC(=O)c3cn(C)nc3C(F)F)cccc12` (stereo not drawn) [isopyrazam], the “Activity (%) B” value with Septoria tritici (0.1 ppm, 100-0 scale) turned out to be 50%; in the test with Septoria tritici (0.1 ppm, 72 hrs, 100=no disease growth), 50%; in the test with Septoria tritici (0.3 ppm, 100-0 scale) it was 70%; in the test on Septoria tritici (0.3 ppm, 72 hrs), 70%.
On to `COc1ccnc(C(=O)N[C@@H](C)C(=O)O[C@@H](C)[C@H](c2ccc(F)cc2C)C(C)C)c1OCOC(C)=O` [[(1S,2S)-2-(4-fluoro-2-methyl-phenyl)-1,3-dimethyl-butyl](2S)-2-[[3-(acetoxymethoxy)-4-methoxy-pyridine-2-carbonyl]amino]propanoate], for which the inhibition at 0.1 ppm in test [1] (Colletotrichum orbiculare, 0.1 ppm, read-out: Activity (%) B) was 20%. Moreover, in test [1] (Colletotrichum orbiculare, 0.3 ppm, read-out: Activity (%) B), the inhibition at 0.3 ppm is 70%.
Regarding `CCC(=O)Oc1c(OC)ccnc1C(=O)N[C@@H](C)C(=O)O[C@@H](C)[C@@H](C)c1ccccc1C` [[(1S,2S)-1-methyl-2-(o-tolyl)propyl](2S)-2-[(4-methoxy-3-propanoyloxy-pyridine-2-carbonyl)amino]propanoate, reference compound], the inhibition at 0.03 ppm was found to be 50% in the test on Septoria tritici (Zymoseptoria tritici, 72 h, 0.03 ppm, 72 hrs, read-out: Activity (%) B) and 0% with Septoria glycines (Septoria glycines, 0.03 ppm, 100-0 scale, read-out: Activity (%) B). Also, the inhibition at 0.06 ppm with Septoria tritici (Zymoseptoria tritici, 72 h, 0.06 ppm) came out at 70%; in the test on Septoria glycines (Septoria glycines, 0.06 ppm, 100-0 scale) it was 0%.
Regarding `CO/C=C(/C(=O)OC)c1ccccc1Oc1cc(Oc2ccccc2C#N)ncn1` [azoxystrobin, reference compound], the “Observed Activity (%) (% of untreated)” value is given as 0% in the test with Phakopsora pachyrhizi (active ingredient alone, 2.25 g/ha); 15% in the test on Phakopsora pachyrhizi (active ingredient alone, 4.5 g/ha); 23% in the test with Phakopsora pachyrhizi (active ingredient alone, 9 g/ha); 9% with Phakopsora pachyrhizi (active ingredient alone, 18 g/ha). In addition, the “Observed Activity (% of untreated)” value was 0% in the test on Phakopsora pachyrhizi (applied alone, 2.25 g/ha); 15% with Phakopsora pachyrhizi (applied alone, 4.5 g/ha); 23% with Phakopsora pachyrhizi (applied alone, 9 g/ha); 9% in the test on Phakopsora pachyrhizi (applied alone, 18 g/ha).
On to `CO/C=C(/C(=O)OC)c1ccccc1COc1cccc(C(F)(F)F)n1` [picoxystrobin], for which the “Activity (%) B” value in test [1] (0.1 ppm) and in test [1] (0.3 ppm) was 90% in each case.
With `O=C(Nc1ccccc1F)c1ccc(-c2noc(C(F)(F)F)n2)cc1` [N-(2-fluorophenyl)-4-[5-(trifluoromethyl)-1,2,4-oxadiazol-3-yl]benzamide], the inhibition at 10 ppm in the test with Septoria tritici (Zymoseptoria tritici, 72 h, 10 ppm) is 0%; in the test on Septoria glycines (Septoria glycines) it was 0%; with Septoria glycines (Septoria glycines, 100-0 scale) it was 0%. In addition, the inhibition at 20 ppm with Septoria tritici (Zymoseptoria tritici, 72 h, 20 ppm) came out at 0%; in the test on Septoria glycines (Septoria glycines) it was 0%; in the test on Septoria glycines (Septoria glycines, 100-0 scale), 0%.
Turning to `CC(C)c1ccc(Cl)cc1CN(C(=O)c1c(C(F)F)nn(C)c1F)C1CC1` [Isoflucypram], the “Observed Activity (% of untreated)” value with Phakopsora pachyrhizi (applied alone, 2.25 g/ha) came to 2%; in the test on Phakopsora pachyrhizi (applied alone, 4.5 g/ha), 1%; in the test with Phakopsora pachyrhizi (applied alone, 9 g/ha), 0%.
`OC(Cn1cncn1)(c1ccc(F)cc1)c1ccccc1F` (stereo not drawn) [flutriafol]: the “Activity (%) B” value in the test with Septoria glycines (0.1 ppm) was found to be 20%; with Septoria glycines (0.3 ppm), 70%.
On to `CC(Cc1ccc(C(C)(C)C)cc1)CN1C[C@@H](C)O[C@@H](C)C1` (stereo partly drawn) [fenpropimorph], for which the inhibition at 0.1 ppm turned out to be 20% with Septoria glycines (setting [11]) and 20% in the test on Septoria glycines (Septoria glycines, 0.1 ppm, read-out: Activity (%) B). Besides, the inhibition at 0.3 ppm came out at 50% with Septoria glycines (Septoria glycines, 0.3 ppm) and 50% in the test on Septoria glycines (setting [12]).
For the molecule `CC(O)(Cn1cncn1)c1ccc(Oc2ccc(Cl)cc2)cc1C(F)(F)F` (stereo not drawn) [mefentrifluconazole, reference compound], the “Observed Activity (% of untreated)” value with Phakopsora pachyrhizi (applied alone, 22.5 g/ha) was 1%; in the test on Phakopsora pachyrhizi (applied alone, 45 g/ha) it was 20%. The “Observed Activity (%) (% of untreated) against Phakopsora pachyrhizi” value with Phakopsora pachyrhizi (applied alone, 22.5 g/ha) was 1%; in the test with Phakopsora pachyrhizi (applied alone, 45 g/ha), 20%.
